Where “and” joins values, the source holds several entries; their conditions need not be identical. Identical values can stand only once. Like-named read-outs stand apart in the source and are kept apart here.

One data set has as its system HIV-1 (strain NL4-3). Kind of data set: Infectivity of HIV-1 (strain NL4-3) pretreated with SLS to 1G5 cells (luciferase activity). The format is cell-based. The note with it: virus pretreated with 500 μM SLS for 1 h at 37° C.; FIG. 3. The procedure:
The effect of pretreating HIV-1 (strain NL4-3) with SLS on its infectivity to 1G5 cells, a Jurkat E6-1 derivative that harbors two stably integrated constructs made up of the luciferase gene under the control of the HIV-1SF2 LTR, has been also evaluated. In brief, prior to infection, the virus was incubated with either culture medium or 500 μM SLS for 1 h at 37° C. Cells (1×10^5 cells/well) were then incubated with HIV-1 strain NL4-3 (10 ng of p24) for 2 h at 37° C. under a 5% CO2 atmosphere. Afterwards, cells were washed, resuspended in 200 μl of complete culture medium and transferred in a 96-well flat-bottomed tissue culture plate (Microtest III, Falcon; Becton Dickinson, Lincoln Park, N.J.). After a 48 h incubation time at 37° C., cells were lysed, subject to a freeze-thaw cycle and luciferase activity was monitored using a microplate luminometer (MLX; Dynex Technologies, Chantilly, Va.).

The test system of the next data set is Vero cells. Kind of data set: Viability of Vero cells exposed to SLS or DS (MTS test). The note with it: Vero cells exposed 1 h at 37° C. to concentrations as in FIG. 1 and Table 1; data not shown. Background: Formazan colour is commonly taken as a measure of viable cells.
In a further data set the test system is HSV-2 (strain 333). The data set is described as follows: Murine intravaginal infection model, gel formulations applied prior to infection. The format is in vivo, Balb/c mice. The note with it: 2.5% SLS alone intravaginally 5 min prior to infection. The procedure:
The efficacy of gel formulations to prevent the genital transmission of HSV-2 has been evaluated in a murine intravaginal infection model. In brief, female Balb/c mice aged 4 weeks were used for this study. To increase susceptibility of mice to herpes, 2.5 mg of progesterone (Depo-Provera) was administered subcutaneously to each mouse 7 days prior to and one day prior to inoculation with HSV-2. Anesthetized mice were inoculated with 5 μl of 2.4×10^7 pfu/ml of HSV-2 (strain 333) after swabbing the vagina with a calcium alginate thin tipped swab. To determine the efficacy of the gel formulations to block herpes infection, 15 μl of the gel was delivered with a pipette tip into the vagina a few minutes prior to the inoculation. The pipette tip was moved in and out four times to simulate stirring action of sexual intercourse while being cautious not to cause any bleeding.

For another data set, the system named is HSV-2 (strain 22). Kind of data set: Murine intranasal infection model, HSV-2 pretreated with SLS. The format is in vivo, Balb/c mice. The procedure: The effect of pretreating HSV-2 (strain 22) with SLS on viral infectivity has also been evaluated in a murine intranasal infection model. In brief, female Balb/c mice (Charles River Breeding Laboratories Inc., St-Constant, QC, Canada) 4 weeks-old were used throughout this study. Prior to the infection, HSV-2 (strain 22) was incubated for 1 h at 37° C. with PBS or with different concentrations of SLS (6.25, 25 or 100 μM) to reach a final viral inoculum of 2,000 PFU/20 μl. Mice were slightly anesthetized using Aerrane® (Isoflurane, USP; Janssen, North York, ON, Canada) and viral suspension (20 μl total volume) was applied into the external left nare of mice. Mice were then returned to their cages and survival was evaluated daily.

The next data set has as its system HSV-2. The note with it: Howett et al., 1999; cited from earlier work.
The test system of data set [1] is HSV-1 (strain F). Kind of data set: Infectivity of HSV-1 (strain F) to Vero cells after treatment with SLS or DS (plaque forming units). The format is cell-based, Herpes simplex virus type-1. The note with it: Vero cells preincubated 1 h at 37° C. with 6.25 to 100 μM SLS prior to infection; data not shown.
For data set [2], the system named is HSV-1 (strain F). The data set is described as above. The format is cell-based, Herpes simplex virus type-1. The note with it: for IC50: Human alphaherpesvirus 1, Vero, FIG. 1, read-out: concentration giving a loss of 50% of the viral infectivity. The procedure:
The effect of pretreating different strains of herpes viruses with SLS or DS on their viral infectivities to susceptible cells has been evaluated. In brief, cells were seeded in 24 well-plates (Costar, Montreal, QC, Canada). Prior to infection, the virus was either suspended in culture medium or phosphate buffered saline (PBS), or incubated with different concentrations of SLS in PBS for 1 h at 37° C. At confluency, cells were incubated with viral suspensions by centrifuging the plates (750× g for 45 min at 20° C.) to allow virus adsorption. Virus was removed and cell sheets were then overlaid with 0.5 ml of 0.6% agarose Seaplaque (Marine Colloids, Rockland, Md.) prepared in appropriate culture medium. The plates were incubated for 2 days at 37° C. Cells were then fixed with 10% formaldehyde in PBS for 20 min, washed with deionized water and stained with 0.05% methylene blue. Viral infectivity was evaluated via the determination of Plaque Forming Units (PFU).
HSV-1 (strain F) infectivity was reduced to 21% when viral particles were pretreated with 25 μM SLS. The infectivities of all HSV-2 strains were between 50 to 70% following preincubation with 25 μM SLS. A complete loss of the infectivity of all strains tested were obtained following pretreatment of the viruses with 50 μM SLS.
When SLS was immediately added to Vero cells following their infection, the loss of viral infectivity was less dramatic compared to that obtained for virus pretreated for 1 h at 37° C. with the same SLS concentrations. […] Similarly, pretreatment of the HSV-2 (strain 333) with SLS also influenced the infectivity of this strain (data not shown). On the other hand, DS reduces the infectivity of the virus independent of whether the virus was pretreated with DS.

The subject of data set [3] is rabbit, bovine and human papillomaviruses. The note with it: brief treatment with low concentrations; Howett et al., 1999; cited from earlier work.
[4] abbreviates: viral suspension pretreated with 100 μM SLS.

Turning to `CCCCCCCCCCCCOS(=O)(=O)[O-].[Na+]` [SLS, Sodium lauryl sulfate], the “HIV-1 infectivity to 1G5 cells” value in the data set with HIV-1 (strain NL4-3) is given as “almost completely inhibited”. In the data set on Vero cells, the “cytotoxicity (viability, MTS test)” value is given as “No signs of cytotoxicity”. The “mice that survived the infection” value was “all” in the data set on HSV-2 (strain 333), 67% in the data set with HSV-2 (strain 22) (viral inoculum pretreated with 6.25 μM SLS), 67% in the data set on HSV-2 (strain 22) (viral inoculum pretreated with 25 μM SLS) and “all” with HSV-2 (strain 22) (setting [4]). Moreover, the signs of illness result in the data set on HSV-2 (strain 333) (up to 16 days post-infection) and with HSV-2 (strain 22) (setting [4]) was “did not demonstrate any sign of illness” in each case. Moreover, the “inactivation of HSV-2” value with HSV-2 was “potent inactivator”. Moreover, in the data set with HSV-1 (strain F) [1], the “infectivity of HSV-1 (strain F) after preincubation of Vero cells (not virus) with SLS” value was “did not result in a loss of infectivity”. In addition, the “inhibition of viral infectivity” value is “not complete” with HSV-1 (strain F) [2] (100 μM SLS without pretreatment) and “complete inhibition” in the data set on HSV-1 (strain F) [2] (preincubation of virus with 50 μM SLS). Besides, the results for the IC50 in the data set on HSV-1 (strain F) [2] (virus not pretreated (added without pretreatment)) and with HSV-1 (strain F) [2] (virus pretreated for 1 h at 37° C.) were 75 µM and 20 µM, respectively. The “PFU (% of control) for HSV-1 (F)” value was 101.1 ± 7.0 % of control in the data set on HSV-1 (strain F) [2] (virus pretreated with 6.25 μM SLS for 1 hour at 37° C.); 79.2 ± 36.4 % of control with HSV-1 (strain F) [2] (virus pretreated with 12.5 μM SLS for 1 hour at 37° C.); 21 % of control and 21.2 ± 18.0 % of control in the data set on HSV-1 (strain F) [2] (virus pretreated with 25 μM SLS for 1 hour at 37° C., sulfate); 0 % of control with HSV-1 (strain F) [2] (virus pretreated with 50 μM SLS for 1 hour at 37° C.). Also, in data set [3], the “effect against rabbit, bovine and human papillomaviruses (non-enveloped viruses)” value was “effective”.

These data come from patent US7192607B2, “Formulations for the prevention or the treatment of diseases affecting mucosae or skin, or for pregnancy prevention, and an applicator for the delivery of topical formulations into mucosal cavities” (Infectio Recherche Inc, priority 2002, dated 2007).
